Where a SMILES comes first, the peptide text is derived from it. The star is where a group is joined. Galloyl = O=C(c1cc(O)c(O)c(O)c1)*
Experiments:
HCV JFH1 3' UTR dsRNA = assay: dsRNA intercalation assay (agarose gel); type: binding, hepatitis C virus; conditions: peptide 20 μM; 45 min; 1% agarose gel
Excerpt: scans, with a resolution of 0.2 nm. To investigate the conformational changes by the membrane environments, the data were obtained in vesicles containing POPC:POPS (9:1), and POPC:Cholesterol (9:1). CD spectra were typically recorded as an average of the eight scans that were obtained in millidegrees and converted to molar ellipticity [θ] in deg·cm2·dmol-1. The peptide concentration was 10 μmol·L-1, and the proportion of lipid/peptide was 100 (L/P = 100).
Effect of peptides on dsRNA intercalation assay
To assess GA-Hecate’s dsRNA intercalation capacity, we performed an assay adapted from Krawczyk et al. 2009. Initially, a PCR reaction was made and the HCV JFH1 3’ untranslated region (UTR) (accession no. AB047639) was amplified by specific primers flanked by a T7 promoter sequence (F
273 bp, was purified using a ZymocleanTM Gel DNA recovery Kit (Zymo Research) and used as a template for in vitro dsRNA production using a T7 Ribomax Express kit (Promega). […] GA-Hecate, Hecate and Lys-Hecate (20 μM) were incubated with […] of dsRNA, for 45 min, and subsequently analysed in 1% agarose gel 1X TAE stained with ethidium bromide. […]
In order to guarantee that the virus inhibition effect was not related exclusively to cell death trigger, all concentrations were evaluated to necrosis and apoptosis induction. […]

[1] = system: J6/JFH-1-infected Huh-7.5 cells; assay: Necrosis analysis (propidium iodide staining); type: cell-based, human
Experimental: (§1) Apoptosis and Necrosis analysis
(§2) The ability of GA-Hecate inducing cell death by necrosis and apoptosis was assessed in 48 and 72h post-treatment (p.t) at concentrations: 1.25; 2.5; 5; 10; 20 and 40 μM. For necrosis evaluation, cells were stained using Propidium Iodide at […], which was incubated with the cells 15 minutes prior fixation. Subsequently, cells were fixed using paraformaldehyde 4% in PBS (PFA 4%) for 15 minutes and nuclei stained using DAPI 1 μg/mL for 5 minutes. For apoptosis evaluation, cells were fixed using PFA 4% during 15 minutes, permeabilized using Triton X- 100 (Sigma) 0.1% in PBS and stained using anti-Active Caspase 3 antibody (host: Rabbit) (1:200 in BSA 1% in PBS) (Abcam 13847) for 2h. Then cells were rinsed using PBS and stained using anti-rabbit AlexaFluor 594 (1:500 in BSA 1% PBS) (Thermo Scientific A21207) during 2h. Nuclei were stained using DAPI for 5 minutes. For both assays, cells were counted in 5 randomly chosen fields in duplicate. […]
Figure S2. Cell death mechanisms triggered by GA-Hecate 48h post-treatment in […]
J6/JFH-1- infected Huh-7.5 cells. […]
B) Necrosis assessment.
Necrotic cells were stained using Propidium iodide […], which is able to cross only damaged membranes and reaches the nucleus. PI is represented in red and cell nuclei were counterstained using DAPI (blue). Bars represents the average of 5 fields in duplicate. Ns: non statistically significant. *** Pvalue< 0.001vs 0.00 µM […]
Figure S3. Cell death mechanisms triggered by GA-Hecate 72h post-treatment in […]

[2] = system: lipid droplets in HCVcc-infected Huh-7.5 cells; assay: Intracellular distribution and quantity of neutral lipids (Bodipy 493/503); type: cell-based, human; conditions: 20 μM; 48 h; HCV-infected Huh-7.5
Excerpt: Figure 7 GA-Hecate effect on lipid droplets. (A) Pattern of lipid droplet distribution on treated and non-treated HCV-infected Huh-7.5 cells and the lipid droplets relative quantification. Blue: DAPI staining nuclei; Green: lipid droplets stained by Bodipy 493/503; Red: HCV NS5A represented by Alexa fluor-594. (B) Light Scattering Dynamic showing synthetic unilamellar vesicle size with lipid droplet constitution after treatment with the following: I. Water (negative control of size change); II. Triton-X 100 (positive control of size change); III. Hecate; IV. GA-Hecate.
To evaluate the GA-Hecate effect on the intracellular neutral lipid distribution, the GA-Hecate-treated cells at maximum non-cytotoxic concentration (20 μM) were evaluated 48 h post-treatment. For this purpose, 2 × 10^4 Huh-7.5 cells that were infected with HCVcc were seeded in a 24-well plate 24 h […] the treatment. On the following day, GA-Hecate or water (peptide diluent) were added in the plate and incubated for 48 h. […] To quantify the intracellular lipid content, two - four photos/well were performed and the fluorescence intensity was measured by ImageJ software. Bodipy fluorescence was normalized with DAPI fluorescence.

[3] = system: J6/JFH-1-infected Huh-7.5 cells; assay: Apoptosis analysis (active caspase-3 staining); type: cell-based, human; conditions: 1.25-40 μM; 48 and 72 h p.t.
Experimental: as §1, §2
Figure S2. Cell death mechanisms triggered by GA-Hecate 48h post-treatment in J6/JFH-1- infected Huh-7.5 cells. A) Apoptosis activation triggered by GA-Hecate was measured by Active Caspase-3 in treated cells. Caspase is artificially represented in green and nuclei were stained using DAPI 1µg/mL (blue). B) Necrosis assessment. […]

## CC(C)C[C@H](NC(=O)[C@H](C)NC(=O)[C@H](CCCCN)NC(=O)[C@H](CCCCN)NC(=O)[C@H](CC(C)C)NC(=O)[C@H](C)NC(=O)[C@H](CCCCN)NC(=O)[C@H](CCCCN)NC(=O)[C@H](CC(C)C)NC(=O)[C@H](CCCCN)NC(=O)[C@H](CCCCN)NC(=O)[C@H](CC(C)C)NC(=O)[C@H](C)NC(=O)[C@H](CCCCN)NC(=O)[C@H](CCCCN)NC(=O)[C@H](CC(C)C)NC(=O)[C@H](C)NC(=O)[C@H](CCCCN)NC(=O)[C@H](CC(C)C)NC(=O)[C@H](C)NC(=O)[C@H](CC(C)C)NC(=O)[C@H](C)NC(=O)[C@H](Cc1ccccc1)NC(=O)c1cc(O)c(O)c(O)c1)C(N)=O [GA-Hecate] (Galloyl-FALALKALKKALKKLKKALKKAL-NH2)
HCV JFH1 3' UTR dsRNA
  intercalation in HCV dsRNA: able to intercalate in HCV dsRNA
[1]; 20 μM, over the time (48 and 72 h)
  necrosis: about 20%
[1]; 40 μM, 48h p.t., propidium iodide
  necrosis: 50%
[1]; 40 μM, 72h p.t., propidium iodide
  necrosis: 10%
[2]
  effect on lipid droplets distribution and quantity: altered the lipid droplets distribution and reduced its quantity
[3]
  apoptosis induction (active caspase-3): no significate apoptosis induction in any tested time point or concentration
